Results published in ChEMBL document CHEMBL1125127 (J Med Chem, 1990).

Tests used:
[1] = Ratio of number of active animals to number of treated at dose 10 mg/kg administered intraperitoneally in anesthetized dogs; No of animals tested=2; type: functional; settings: route intraperitoneal
Canis familiaris [2] = assay: Percent change in FRP from control at active dose 10 mg/kg administered intraperitoneally in anesthetized dogs; type: functional, Canis lupus familiaris; settings: route intraperitoneal
Canis familiaris [3] = assay: Percent change in heart rate (HR) from control at active dose 10 mg/kg administered intraduodenally; settings: route intraduodenal
[4] = molecular target: Beta adrenergic receptor (Canis familiaris)
Canis familiaris [5] = assay: Concentration that causes a 20% increase in APD95 (action potential duration at 95% repolarization) from control value in anesthetized dogs; type: functional, Canis lupus familiaris
Canis familiaris [6] = assay: Percent change in blood pressure (BP) from control at active dose 10 mg/kg administered intraperitoneally in anesthetized dogs; type: functional, Canis lupus familiaris; settings: route intraperitoneal
Canis familiaris [7] = assay: Concentration at which maximum change in […] was observed from control value in anesthetized dogs; The maximum observed change APD95 from control value and concentration at 10 uM when this occurred; type: functional, Canis lupus familiaris
Canis familiaris [8] = assay: Maximum change in […] from control value in anesthetized dogs; 10 uM.; type: functional, Canis lupus familiaris
[9] = molecular target: Adrenergic receptor beta (Canis lupus familiaris); assay: Tested for beta-receptor binding inhibition from canine ventricular tissue, using [3H]dihydroalprenolol as the radioligand in anesthetized dogs
Canis familiaris [10] = assay: Concentration at which maximum change in […] was observed from control value in anesthetized dogs; The maximum observed change APD95 from control value and concentration at 30 uM when this occurred; type: functional, Canis lupus familiaris
Canis familiaris [11] = assay: Percent change in heart rate (HR) from control at active dose 10-30 mg/kg administered intraperitoneally; type: functional, Canis lupus familiaris
Canis familiaris [12] = assay: Percent change in blood pressure (BP) from control at active dose 0.3-10 mg/kg administered intraperitoneally in anesthetized dogs; type: functional, Canis lupus familiaris
Canis familiaris [13] = assay: Concentration at which maximum change in […] was observed from control value in anesthetized dogs; The maximum observed change APD95 from control value and concentration at 100 uM when this occurred; type: functional, Canis lupus familiaris
Canis familiaris [14] = assay: Percent change in heart rate (HR) from control at active dose 0.3-10 mg/kg administered intraperitoneally in anesthetized dogs; type: functional, Canis lupus familiaris
[15] = Ratio of number of active animals to number of treated at dose 3.0 mg/kg administered intraperitoneally in Epinephrine-induced model in anesthetized dogs; 6/6; settings: route intraperitoneal
Canis familiaris [16] = assay: Percent change in FRP from control at active dose 0.3-10 mg/kg administered intraperitoneally; type: functional, Canis lupus familiaris
Canis familiaris [17] = assay: Percent change in blood pressure (BP) from control at active dose 10-30 mg/kg administered intraperitoneally in anesthetized dogs; type: functional, Canis lupus familiaris
Canis familiaris [18] = assay: Percent change in FRP from control at active dose 10-30 mg/kg administered intraperitoneally in anesthetized dogs; type: functional, Canis lupus familiaris
[19] = Ratio of number of active animals to number of treated at dose 1.0 mg/kg administered intraperitoneally in Epinephrine-induced model in anesthetized dogs; 4/4; type: functional; settings: route intraperitoneal
Canis familiaris [20] = assay: Percent change in FRP from control at active dose 1.0-10 mg/kg administered intravenously
Canis familiaris [21] = assay: Percent change in blood pressure (BP) from control at active dose 1.0-10 mg/kg administered intraperitoneally in anesthetized dogs; type: functional, Canis lupus familiaris
Canis familiaris [22] = assay: Percent change in heart rate (HR) from control at active dose 1.0-10 mg/kg administered intravenously in conscious dogs
[23] = molecular target: Beta-1 adrenergic receptor (Canis lupus familiaris); assay: Tested for beta1-receptor selectivity in canine cardiac tissue in anesthetized dogs
[24] = molecular target: T1, Beta-2 adrenergic receptor (Canis lupus familiaris, UniProt P54833); assay: Beta2-receptor selectivity in canine lung tissue in anesthetized dogs; type: functional
T1 sequence (P54833 whole entry): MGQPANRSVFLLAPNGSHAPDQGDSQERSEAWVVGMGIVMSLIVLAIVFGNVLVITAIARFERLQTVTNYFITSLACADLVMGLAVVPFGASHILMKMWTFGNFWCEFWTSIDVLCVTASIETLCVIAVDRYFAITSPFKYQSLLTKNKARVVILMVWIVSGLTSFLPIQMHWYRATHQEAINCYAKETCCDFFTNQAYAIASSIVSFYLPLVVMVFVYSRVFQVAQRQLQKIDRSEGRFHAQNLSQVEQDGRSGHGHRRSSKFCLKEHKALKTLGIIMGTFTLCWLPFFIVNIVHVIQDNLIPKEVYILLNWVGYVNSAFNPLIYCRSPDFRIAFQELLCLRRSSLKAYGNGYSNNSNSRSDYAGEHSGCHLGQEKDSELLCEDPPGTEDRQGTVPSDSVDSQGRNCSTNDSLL

[25] = molecular target: T1, Beta-2 adrenergic receptor
Description: Tested for Beta-2 adrenergic receptor selectivity in canine lung tissue in anesthetized dogs

[26] = molecular target: Beta-1 adrenergic receptor (Canis familiaris)
[27] = Ratio of number of active animals to number of treated in anesthetized dogs; No of animals tested=2; type: functional
Canis familiaris [28] = assay: Percent change in FRP from control at active dose 1.0-10 mg/kg administered intraperitoneally; type: functional, Canis lupus familiaris
Canis familiaris [29] = assay: Percent change in heart rate (HR) from control at active dose 1.0-10 mg/kg administered intraperitoneally in anesthetized dogs; type: functional, Canis lupus familiaris
Canis familiaris [30] = assay: Percent change in heart rate (HR) from control at active dose 10 mg/kg administered intraduodenally; settings: route intraduodenal; remark: listed apart in the source
[31] = Ratio of number of active animals to number of treated at dose 1.0-10 mg/kg administered intravenously in PES model in conscious dogs; 5/6
[32] = Ratio of number of active animals to number of treated at dose 1.0 mg/kg administered intraperitoneally in Epinephrine-induced model in anesthetized dogs; 4/8; type: functional; settings: route intraperitoneal
[33] = Ratio of number of active animals to number of treated administered intraperitoneally in Epinephrine-induced model in anesthetized dogs; 4/8; settings: route intraperitoneal

CS(=O)(=O)Nc1ccc(N2CCN(CC(O)COc3cccc4c3CCCC4=O)CC2)cc1 (stereo not given) gave a Ratio [1] of 1, a Change (Canis familiaris [2]) of 12% and a Change (Canis familiaris [3]) of -1%. It also gave an IC50 [4] of 8.4 µM, a C20 (Canis familiaris [5]) of 1.9 µM and a Change (Canis familiaris [6]) of 18%. The Max delta (Canis familiaris [7]) was 48%.
Work on COCCc1ccc(OCC(O)CN2CCN(C(=O)c3ccc(NS(C)(=O)=O)cc3)CC2)cc1 (stereo not given) yielded an IC50 [4] of 360 µM, a C20 (Canis familiaris [5]) of 7.7 µM and a Max delta (Canis familiaris [8]) of 56%.
For COc1ccccc1C(O)CNCCOc1ccc(-n2ccnc2)cc1 (stereo not given), the IC50 [9] was 3.7 µM, the Max delta (Canis familiaris [10]) was 33% and the “C20 APD95” value (Canis familiaris [5]) was 10.4 µM.
Work on CC(C)NCC(O)c1ccc(NS(C)(=O)=O)cc1 (stereo not given) [SOTALOL] yielded a Change (Canis familiaris [11]) of -10%, a Change (Canis familiaris [12]) of 8% and a Max delta (Canis familiaris [13]) of 48%. The Change (Canis familiaris [14]) was -6%, the “No. of active/no. of tested” value [15] was 6 and the Change (Canis familiaris [16]) was 14%. For the same compound, the Change (Canis familiaris [17]) was 9%, the Change (Canis familiaris [18]) was 17% and the C20 (Canis familiaris [5]) was 14.4 µM. For the same compound, the “No. of active/no. of tested” value [19] was 4.
For CS(=O)(=O)Nc1ccc(C(=O)N2CCN(CC(O)COc3ccccc3)CC2)cc1 (stereo not given), the IC50 [4] was 12.2 µM, the C20 (Canis familiaris [5]) was <1 µM and the Max delta (Canis familiaris [8]) was 88%.
OC(CNCCOc1ccc(-n2ccnc2)cc1)CONC(C1CC1)C1CC1 (stereo not given) gave an IC50 [9] of 0.3 µM, a Change (Canis familiaris [2]) of 20% and a Change (Canis familiaris [3]) of -18%. For the same compound, the Change (Canis familiaris [20]) was 3%, the Change (Canis familiaris [21]) was -5% and the Change (Canis familiaris [22]) was -13%. The “C20 APD95” value (Canis familiaris [5]) was 1.5 µM, the Change (Canis familiaris [6]) was 2% and the Max delta (Canis familiaris [8]) was 87%.
With OC(CNCCOc1ccc(-n2ccnc2)cc1)COc1ccccc1 (stereo not given) the IC50 [9] was 0.04 µM, the IC50 [23] was 40 nM and the “C20 APD95” value (Canis familiaris [5]) was 8.8 µM. For the same compound, the Max delta (Canis familiaris [8]) was 21% and the IC50 [24] was 280 nM.
In the case of CC(=O)Nc1ccc(OCC(O)CN2CCN(c3ccc(NS(C)(=O)=O)cc3)CC2)cc1 (stereo not given), the Max delta (Canis familiaris [13]) is reported as 39%, the IC50 [4] is reported as 293 µM and the C20 (Canis familiaris [5]) is reported as 42 µM.
Compound Cc1cccc(OCC(O)CNCc2ccc(NS(C)(=O)=O)cc2)c1 (stereo not given) has an IC50 [25] of 4.4 µM, an IC50 [4] of 0.99 µM and an IC50 [26] of 2.4 µM. For the same compound, the C20 (Canis familiaris [5]) was <1 µM and the Max delta (Canis familiaris [8]) was 44%.
With CS(=O)(=O)Nc1ccc(CNCC(O)COc2ccccc2)cc1 (stereo not given) the Ratio [27] was 0, the IC50 [4] was 2.9 µM and the C20 (Canis familiaris [5]) was <1 µM. It also gave a Max delta (Canis familiaris [8]) of 40%.
Compound COCCc1ccc(OCC(O)CNCc2ccc(NS(C)(=O)=O)cc2)cc1 (stereo not given) has an IC50 [25] of 46 µM, an IC50 [4] of 25.8 µM and an IC50 [26] of 7.3 µM. For the same compound, the C20 (Canis familiaris [5]) was 0.5 µM and the Max delta (Canis familiaris [8]) was 57%.
Compound Cc1ccccc1OCC(O)CN1CCN(c2ccc(NS(C)(=O)=O)cc2)CC1 (stereo not given) has a Ratio [1] of 2, a Change (Canis familiaris [28]) of 8% and a Change (Canis familiaris [2]) of 13%. The Change (Canis familiaris [29]) was -3%, the IC50 [25] was 6.6 µM and the Change (Canis familiaris [30]) was -11%. The IC50 [4] was 2.3 µM, the No. effective [31] was 5 and the No. effective [32] was 4. The Change (Canis familiaris [21]) was 13%, the IC50 [26] was 3.3 µM and the C20 (Canis familiaris [5]) was <4.5 µM. For the same compound, the Ratio [33] was 0.5, the Change (Canis familiaris [6]) was 11% and the Max delta (Canis familiaris [8]) was 53%.
CCN(CC)CCNC(=O)c1ccc(NS(C)(=O)=O)cc1 [SEMATILIDE] showed a Max delta (Canis familiaris [13]) of 65% and a C20 (Canis familiaris [5]) of 4.4 µM.
CS(=O)(=O)Nc1ccc(OC[C@H](O)CNCCOc2ccc(-n3ccnc3)cc2)cc1 showed a Max delta (Canis familiaris [10]) of 73%.
